# Data taken from article PMC8954547, “Nonpeptidic Z360-Analogs Tagged with Trivalent Radiometals as Anti-CCK2R Cancer Theranostic Agents: A Preclinical Study” (Pharmaceutics, 2022).
# Columns and labels:
# [1] = target: T1, human CCK2i4svR splice variant (Homo sapiens, UniProt P32239); test: Competition binding against [125I][I-Tyr12,Leu15]gastrin-17 in HEK293-CCK2i4svR cell membranes; settings: vs [125I][I-Tyr12,Leu15]gastrin-17, HEK293-CCK2i4svR cell membranes, 1 h 22 °C; mean ± SD
# T1 construct: expressed in transfected cells; membrane homogenates
# T1 sequence (P32239 1-516 isoform P32239-2): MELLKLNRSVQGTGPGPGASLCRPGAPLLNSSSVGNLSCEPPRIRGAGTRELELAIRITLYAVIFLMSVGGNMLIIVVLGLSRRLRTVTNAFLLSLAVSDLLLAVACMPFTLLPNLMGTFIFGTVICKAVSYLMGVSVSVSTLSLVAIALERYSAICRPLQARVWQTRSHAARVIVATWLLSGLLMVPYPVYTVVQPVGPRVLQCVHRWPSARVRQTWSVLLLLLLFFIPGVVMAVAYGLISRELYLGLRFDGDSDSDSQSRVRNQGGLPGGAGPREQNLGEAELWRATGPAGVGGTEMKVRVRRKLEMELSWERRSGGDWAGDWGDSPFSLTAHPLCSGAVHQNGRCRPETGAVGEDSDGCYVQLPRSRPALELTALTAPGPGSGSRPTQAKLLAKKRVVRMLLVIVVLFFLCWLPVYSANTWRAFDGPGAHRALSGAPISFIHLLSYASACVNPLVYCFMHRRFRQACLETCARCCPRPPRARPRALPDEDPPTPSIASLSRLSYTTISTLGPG
# Protocol: Competition binding assays for the metal-free GAS1/2/3 and the corresponding metal-tagged [^natGa]Ga/[^natIn]In/[^natLu]Lu-GAS1/3 and [^natGa]Ga/[^natIn]In-GAS2 analogs were conducted against the [^125I][I-Tyr^12,Leu^15]gastrin-17 radioligand in membrane homogenates harvested from HEK293-CCK2i4svR cells, as previously described. Briefly, each of the above analogs, or unmodified Z360 serving as control, was incubated in triplicates of increasing concentrations (10^−13–10^−6 M) with [^125I][I-Tyr^12,Leu^15]gastrin-17 (50 pM, ≈40,000 cpm) and membrane homogenate in binding buffer (300 µL, pH 7.4, 50 mM HEPES, 1% BSA, 5.5 mM MgCl2, 35 µM bacitracin) for 1 h at 22 °C. Incubation was interrupted by rapid filtration through glass fiber filters (Whatman GF/B, presoaked in binding buffer for at least 1 h) on a Brandel Cell Harvester (Adi Hassel Ingenieur Büro, Munich, Germany) and subsequent rinsing with ice-cold washing buffer (10 mM HEPES pH 7.4, 150 mM NaCl). The radioactivity content of individual filters was measured in a gamma counter (automated multi-sample well-type instrument with a NaI(Tl) 3′ crystal, Canberra Packard Cobra^TM Quantum U5003/1, Auto-Gamma® counting system). The 50% inhibitory concentration (IC50) was determined by nonlinear regression analysis according to a one-site model using PRISM 6 (Graph Pad Software, San Diego, CA, USA). Values are expressed as mean ± standard deviation (SD) of three independent experiments performed in triplicate.
# HEK293-CCK2i4svR cells = test: Radioligand uptake and internalization in HEK293-CCK2i4svR cells; type: cell-based, human; settings: 1 h 37 °C, specific, of total added activity
# Protocol: A day before the experiment, HEK293-CCK2i4svR cells were seeded in six-well plates. The next day, cells were rinsed with ice-cold internalization medium (IM: DMEM Glutamax-I, supplemented by 1% (v/v) FBS) and then the fresh medium was added (1.2 mL) at 37 °C. A further portion of IM (150 µL) was added in the upper well-row, and DG2 solution in IM (150 µL) was added in the lower row (to a final concentration of 1 μM; non-specific series). Each of the test radioligands, [^67Ga]Ga/[^111In]In/[^177Lu]Lu-GAS1/3 and [^67Ga]Ga/[^111In]In-GAS2, was finally added (250 fmol total conjugates in 150 μL 0.5% BSA-PBS) in all the wells and the plates were incubated at for 1 h at 37 °C in an Incubator-Orbital Shaker unit (MPM Instr. SrI, Bernareggio, MI, Italy); [^111In]In-GAS1/2/3 were incubated for 15 min, 30 min, 1 h and 2 h. At the predetermined time points, the plates were placed on ice, the medium was collected, and the plates were rinsed with 0.5% BSA-PBS (1 mL). Cells were subsequently treated with an acid-wash solution (2 × 600 µL; 50 mM glycine buffer pH 2.8, 0.1 M NaCl) and the fractions collected (membrane-bound). After briefly washing with 0.5% BSA-PBS (1 mL), the cells were lysed with 1 N NaOH (2 × 600 µL), and the fractions were collected (internalized). The radioactivity content of collected fractions was counted in the gamma counter, and the percentage of internalized and membrane-bound fractions per time point were calculated with Microsoft Excel. Specific internalized and membrane-bound counts were determined by subtracting the respective non-specific (in the presence of 1 μM DG2) from the respective total counts. Results represent specific internalized/membrane bound ± SD of total added radioactivity per well from three experiments performed in triplicate.
# [2] = system: SCID mice bearing twin HEK293-CCK2i4svR and wtHEK293 tumors; test: Biodistribution in SCID mice bearing twin HEK293-CCK2i4svR and wtHEK293 xenografts; type: in vivo
# Protocol: Inocula containing a suspension of freshly harvested HEK293-CCK2i4svR/wtHEK293 cells (150 μL, 1.8 × 10^7/1.4 × 10^7 cells, respectively, in normal saline) were subcutaneously (sc) injected in the right and left flanks of male SCID mice (24.5 ± 2.3 g body weight, six weeks of age on arrival day, NCSR “Demokritos” Animal House Facility). Well-palpable tumors (0.42 ± 0.37/0.25 ± […], respectively) were grown at the inoculation site 3–4 weeks later, and biodistribution was conducted. On the day of biodistribution, animals were divided into groups of four and received the radioligand through the tail vein as a bolus (100 μL, containing each of: i. 78–91 kBq [^67Ga]GAS1/2/3 corresponding to 7–17 pmol GAS1/2/3; ii. 74–92 kBq [^111In]GAS1/2/3 corresponding to 20–25 pmol GAS1/2/3; iii. 730 kBq [^177Lu]Lu-GAS1/3 corresponding to 40 pmol GAS1/3, in-vehicle: saline/EtOH 9/1 v/v). Animals were euthanized at predetermined time intervals depending upon the radionuclide applied (for [^67Ga]Ga-GAS1/2/3: 1, 4 and 24 h pi; for [^111In]In-GAS1/2/3: 4 and 24 h pi–two extra groups of mice receiving gelofusine together with [^111In]In-GAS1/2 at 4 and 24 h pi were included; and for [^177Lu]Lu-GAS1/3: 4, 24, 48, 72 and 96 h pi). Mice were dissected, and blood samples, organs of interest and tumors were rapidly collected, weighted and counted in the gamma counter. Biodistribution data was calculated as the percentage of the administered dose per gram tissue (%IA/g) with the aid of suitable standards of the administered dose and the Microsoft Excel program. Results are presented as mean % IA/g values ± SD, n = 4 per time point, as determined by the PRISM^TM 6.0 GraphPad software (San Diego, CA, USA).
smiles,measurement,setting,value
CC(C)(C)C(=O)CN1C(=O)[C@H](NC(=O)Nc2cccc(C(=O)NCCOCCOCCOCCNC(=O)[C@H](CCC(=O)O)NC(=O)CN3CCN(CC(=O)[O-])CCN(CC(=O)[O-])CCN(CC(=O)[O-])CC3)c2)CN(C2CCCCC2)c2ccccc21.[Ga+3] [[^natGa]Ga-GAS1],IC50,[1],13.8 ± 2.7 nM
CC(C)(C)C(=O)CN1C(=O)[C@H](NC(=O)Nc2cccc(C(=O)NCCOCCOCCOCCNC(=O)[C@H](CCC(=O)O)NC(=O)CCC(C(=O)[O-])N3CCN(CC(=O)[O-])CCN(CC(=O)[O-])CC3)c2)CN(C2CCCCC2)c2ccccc21.[In+3] (stereo partly drawn) [[^natIn]In-GAS2],IC50,[1],53.2 ± 2.7 nM
CC(C)(C)C(=O)CN1C(=O)[C@H](NC(=O)Nc2cccc(C(=O)NCCOCCOCCOCCNC(=O)[C@H](CCC(=O)O)NC(=O)CCC(C(=O)O)N3CCN(CC(=O)[O-])CCN(CC(=O)[O-])CCN(CC(=O)[O-])CC3)c2)CN(C2CCCCC2)c2ccccc21.[Lu+3] (stereo partly drawn) [[^natLu]Lu-GAS3],IC50,[1],4.3 ± 0.9 nM
CC(C)(C)C(=O)CN1C(=O)[C@H](NC(=O)Nc2cccc(C(=O)NCCOCCOCCOCCNC(=O)[C@H](CCC(=O)O)NC(=O)CN3CCN(CC(=O)[O-])CCN(CC(=O)[O-])CCN(CC(=O)[O-])CC3)c2)CN(C2CCCCC2)c2ccccc21.[In+3] [[^natIn]In-GAS1],IC50,[1],5 ± 1.1 nM
CC(C)(C)C(=O)CN1C(=O)[C@H](NC(=O)Nc2cccc(C(=O)NCCOCCOCCOCCNC(=O)[C@H](CCC(=O)O)NC(=O)CCC(C(=O)O)N3CCN(CC(=O)[O-])CCN(CC(=O)[O-])CCN(CC(=O)[O-])CC3)c2)CN(C2CCCCC2)c2ccccc21.[67Ga+3] (stereo in doubt) [[^67Ga]Ga-GAS3],Cell uptake (internalized + membrane-bound),HEK293-CCK2i4svR cells,4.95 ± 0.51%
same,"Biodistribution, Blood",[2]; 1 h pi,8.61 ± 1.17 %IA/g
same,"Biodistribution, CCK2i4svR(+) Tumor",[2]; 1 h pi,21.75 ± 4.90 %IA/g
same,"Biodistribution, CCK2i4svR(-) Tumor",[2]; 1 h pi,2.52 ± 0.28 %IA/g
same,"Biodistribution, Femur",[2]; 1 h pi,1.60 ± 0.31 %IA/g
same,"Biodistribution, Heart",[2]; 1 h pi,2.23 ± 0.38 %IA/g
same,"Biodistribution, Intestines",[2]; 1 h pi,1.53 ± 0.19 %IA/g
same,"Biodistribution, Kidneys",[2]; 1 h pi,9.09 ± 1.51 %IA/g
same,"Biodistribution, Liver",[2]; 1 h pi,5.62 ± 0.40 %IA/g
same,"Biodistribution, Lungs",[2]; 1 h pi,4.32 ± 0.58 %IA/g
same,"Biodistribution, Muscle",[2]; 1 h pi,0.82 ± 0.14 %IA/g
same,"Biodistribution, Pancreas",[2]; 1 h pi,2.51 ± 0.22 %IA/g
same,"Biodistribution, Spleen",[2]; 1 h pi,1.96 ± 0.13 %IA/g
same,"Biodistribution, Stomach",[2]; 1 h pi,1.51 ± 0.13 %IA/g
same,"Biodistribution, Blood",[2]; 4 h pi,2.23 ± 0.39 %IA/g
same,"Biodistribution, CCK2i4svR(+) Tumor",[2]; 4 h pi,20.39 ± 3.96 %IA/g
same,"Biodistribution, CCK2i4svR(-) Tumor",[2]; 4 h pi,1.15 ± 0.18 %IA/g
same,"Biodistribution, Femur",[2]; 4 h pi,0.78 ± 0.10 %IA/g
same,"Biodistribution, Heart",[2]; 4 h pi,0.76 ± 0.07 %IA/g
same,"Biodistribution, Intestines",[2]; 4 h pi,1.59 ± 0.19 %IA/g
same,"Biodistribution, Kidneys",[2]; 4 h pi,7.86 ± 0.48 %IA/g
same,"Biodistribution, Liver",[2]; 4 h pi,4.97 ± 0.74 %IA/g
same,"Biodistribution, Muscle",[2]; 4 h pi,0.25 ± 0.05 %IA/g
same,"Biodistribution, Pancreas",[2]; 4 h pi,0.77 ± 0.11 %IA/g
same,"Biodistribution, Spleen",[2]; 4 h pi,1.60 ± 0.39 %IA/g
same,"Biodistribution, Stomach",[2]; 4 h pi,0.61 ± 0.12 %IA/g
same,"Biodistribution, Blood",[2]; 24 h pi,0.14 ± 0.02 %IA/g
same,"Biodistribution, CCK2i4svR(+) Tumor",[2]; 24 h pi,5.37 ± 1.00 %IA/g
same,"Biodistribution, CCK2i4svR(-) Tumor",[2]; 24 h pi,0.61 ± 0.08 %IA/g
same,"Biodistribution, Femur",[2]; 24 h pi,0.52 ± 0.07 %IA/g
same,"Biodistribution, Heart",[2]; 24 h pi,0.17 ± 0.02 %IA/g
same,"Biodistribution, Intestines",[2]; 24 h pi,0.39 ± 0.06 %IA/g
same,"Biodistribution, Kidneys",[2]; 24 h pi,1.98 ± 0.45 %IA/g
same,"Biodistribution, Liver",[2]; 24 h pi,2.48 ± 0.34 %IA/g
same,"Biodistribution, Lungs",[2]; 24 h pi,2.43 ± 1.04 %IA/g
same,"Biodistribution, Muscle",[2]; 24 h pi,0.06± 0.00 %IA/g
same,"Biodistribution, Pancreas",[2]; 24 h pi,0.17 ± 0.03 %IA/g
same,"Biodistribution, Spleen",[2]; 24 h pi,1.67 ± 0.37 %IA/g
same,"Biodistribution, Stomach",[2]; 24 h pi,0.19 ± 0.03 %IA/g
same,Background clearance / excretion route,"[2]; mouse, in vivo",cleared mainly via the kidneys
CC(C)(C)C(=O)CN1C(=O)[C@H](NC(=O)Nc2cccc(C(=O)NCCOCCOCCOCCNC(=O)[C@H](CCC(=O)O)NC(=O)CCC(C(=O)O)N3CCN(CC(=O)[O-])CCN(CC(=O)[O-])CCN(CC(=O)[O-])CC3)c2)CN(C2CCCCC2)c2ccccc21.[In+3] (stereo partly drawn) [[^natIn]In-GAS3],IC50,[1],1.9 ± 0.2 nM
CC(C)(C)C(=O)CN1C(=O)[C@H](NC(=O)Nc2cccc(C(=O)NCCOCCOCCOCCNC(=O)[C@H](CCC(=O)O)NC(=O)CCC(C(=O)[O-])N3CCN(CC(=O)[O-])CCN(CC(=O)[O-])CC3)c2)CN(C2CCCCC2)c2ccccc21.[Ga+3] (stereo partly drawn) [[^natGa]Ga-GAS2],IC50,[1],8.8 ± 1.6 nM
CC(C)(C)C(=O)CN1C(=O)[C@H](NC(=O)Nc2cccc(C(=O)NCCOCCOCCOCCNC(=O)[C@H](CCC(=O)O)NC(=O)CCC(C(=O)O)N3CCN(CC(=O)[O-])CCN(CC(=O)[O-])CCN(CC(=O)[O-])CC3)c2)CN(C2CCCCC2)c2ccccc21.[Ga+3] (stereo partly drawn) [[^natGa]Ga-GAS3],IC50,[1],4.8 ± 0.6 nM
CC(C)(C)C(=O)CN1C(=O)[C@H](NC(=O)Nc2cccc(C(=O)NCCOCCOCCOCCNC(=O)[C@H](CCC(=O)O)NC(=O)CN3CCN(CC(=O)[O-])CCN(CC(=O)[O-])CCN(CC(=O)[O-])CC3)c2)CN(C2CCCCC2)c2ccccc21.[Lu+3] [[^natLu]Lu-GAS1],IC50,[1],12.4 ± 0.2 nM
